For assay [1], the target named is T1, HLA-A*11:01 (Homo sapiens, UniProt P04439, A114D/D185E/E176A/F33Y/L180Q/S129P/T187R). In words: fluorescence polarization competitive peptide-binding assay. In general terms: In fluorescence polarisation assays a small probe gives low polarisation when free and higher when bound to something large.
Assay [2] has as its target T2, HLA-A*03:01 (Homo sapiens, UniProt P04439). The description is as above.
In assay [3] the target is T3, HLA-B*07:02 (Homo sapiens, UniProt P01889). Type of assay: binding.
The target of assay [4] is T2, HLA-A*03:01. In words: p-HLA complex stability, scintillation proximity assay of β2-microglobulin dissociation. Type of assay: binding. On the technique in general: SPA uses beads or plates that emit light when radiolabelled molecules are held near them.
Assay [5] concerns the target T1, HLA-A*11:01. The assay is described as above. The format is binding.
Assay [6] deals with T4, HLA-A*02:01 (Homo sapiens, UniProt P04439, D140Y/D185E/D98H/E176V/E277Q/G131W/G231S/I119V/I121R/I166T/I218V/L300P/L318F/N151K/N90K/P208A/P217A/Q86G/Q94H/R138H/R169H/T345S). The format is binding.
Assay [7] has as its target T4, HLA-A*02:01. In words: fluorescence polarization competitive peptide-binding assay.
The target of assay [8] is T3, HLA-B*07:02. The description is as above. Particulars: Experimental Affinity IC50.

No end group written: not given here. A value given as a limit tells only on which side of the number the result lay.

Usually IC50 stands for the concentration at which inhibition is half-maximal. A low value points to greater potency in that assay. For VVVGARGVGK [Peptide 7-16R], the figures for the IC50 at HLA-A*11:01 [1], at HLA-A*03:01 [2] (Experimental Affinity IC50) and at HLA-A*03:01 [2] (Experimental Affinity log10[IC50]) were 566 nM, 3240 nM and at most 3.59 nM, respectively.
RPIDDRFGL: on HLA-B*07:02 [3], the “Experimental Stability (t1/2) Mean” value worked out at 3.2 h; the “Half_life, Setp #1” value was found to be 4 h; the “Half_life, Setp #2” value is 2.5 h; the “k, Setp #1” value is listed as 0.174. In addition, the “k, Setp #2” value at HLA-B*07:02 [3] was 0.2746.
With ALLAVGATK [gp17-25], the IC50 was 225 nM on HLA-A*11:01 [1] and 962 nM at HLA-A*03:01 [2] (Experimental Affinity IC50).
KLAQRRVFH: at HLA-A*03:01 [4], the “Experimental Stability (t1/2) Mean” value was 3.5 h; the “Half_life, Setp #1” value was found to be 3.5 h; the “Half_life, Setp #2” value was determined as 3.6 h; the “k, Setp #1” value is 0.2008. Besides, the “k, Setp #2” value at HLA-A*03:01 [4] came to 0.1902.
As to “KITDFGIAK [HLA-A*11:01 control, Serine/threonine-protein kinase PknA, Mycobacterium tuberculosis, IEDB 109407]”, at HLA-A*11:01 [5], the “Experimental Stability (t1/2) Mean” value came to 15.6 h; the “Half_life, Setp #1” value stood at 16.7 h; the “Half_life, Setp #2” value was 14.6 h; the “k, Setp #1” value worked out at 0.0415. The “k, Setp #2” value at HLA-A*11:01 [5] was found to be 0.0476.
Turning to RPIDDRFGLAL, at HLA-B*07:02 [3], the “Experimental Stability (t1/2) Mean” value turned out to be 1.1 h; the “Half_life, Setp #1” value was 1.2 h; the “Half_life, Setp #2” value is 1.1 h; the “k, Setp #1” value amounted to 0.5749. The “k, Setp #2” value at HLA-B*07:02 [3] was found to be 0.6051.
“TVNPIVTEK [HLA-A*11:01 control, Genome polyprotein, Dengue virus, IEDB 67094]”: at HLA-A*11:01 [5], the “Experimental Stability (t1/2) Mean” value came out at 11.4 h; the “Half_life, Setp #1” value worked out at 11.8 h; the “Half_life, Setp #2” value turned out to be 11 h; the “k, Setp #1” value is on record as 0.0587. Further, the “k, Setp #2” value at HLA-A*11:01 [5] is 0.0631.
Take FLIDLAFLI: at HLA-A*02:01 [6], the “Experimental Stability (t1/2) Mean” value was 10.1 h; the “Half_life, Setp #1” value is 11 h; the “Half_life, Setp #2” value is 9.2 h; the “k, Setp #1” value is given as 0.063. Moreover, the “k, Setp #2” value at HLA-A*02:01 [6] was 0.0751.
With ASLPTTIAK, on HLA-A*11:01 [5], the “Experimental Stability (t1/2) Mean” value worked out at 22.5 h; the “Half_life, Setp #1” value came to 23.8 h; the “Half_life, Setp #2” value is 21.1 h; the “k, Setp #1” value is on record as 0.0291. Besides, the “k, Setp #2” value on HLA-A*11:01 [5] is listed as 0.0328.
The sequence KLVVVGARGV [Peptide 5-14R] displayed an IC50 at HLA-A*02:01 [7] of 20700 nM.
As for “RLARAIIEL [HLA-A*02:01 control, Genome polyprotein, West Nile virus, IEDB 54476]”, on HLA-A*02:01 [6], the “Experimental Stability (t1/2) Mean” value is 3 h; the “Half_life, Setp #1” value was determined as 3.3 h; the “Half_life, Setp #2” value stood at 2.8 h; the “k, Setp #1” value is 0.2104. Further, on HLA-A*02:01 [6], the “k, Setp #2” value came out at 0.2479.
Take ALNTITNLK: at HLA-A*03:01 [4], the “Experimental Stability (t1/2) Mean” value worked out at 10.6 h; the “Half_life, Setp #1” value is 11.4 h; the “Half_life, Setp #2” value worked out at 9.7 h; the “k, Setp #1” value was determined as 0.061. Besides, the “k, Setp #2” value on HLA-A*03:01 [4] is 0.0711.
As for KLVVVGAGGV [Peptide 5-14], the IC50 at HLA-A*02:01 [7] turned out to be 10900 nM.
Take SPRERLVLTL: at HLA-B*07:02 [3], the “Experimental Stability (t1/2) Mean” value was 1 h; the “Half_life, Setp #1” value came to 1.1 h; the “Half_life, Setp #2” value came out at 0.9 h; the “k, Setp #1” value stood at 0.6505. Moreover, the “k, Setp #2” value at HLA-B*07:02 [3] is 0.7477.
RVKLSALTLK: at HLA-A*03:01 [4], the “Experimental Stability (t1/2) Mean” value was 12.3 h; the “Half_life, Setp #1” value was 11.6 h; the “Half_life, Setp #2” value was determined as 13.1 h; the “k, Setp #1” value came out at 0.0597. Moreover, the “k, Setp #2” value at HLA-A*03:01 [4] is 0.053.
Take VLWDIPTPK: at HLA-A*03:01 [4], the “Experimental Stability (t1/2) Mean” value is 4.7 h; the “Half_life, Setp #1” value was determined as 4.5 h; the “Half_life, Setp #2” value was 4.9 h; the “k, Setp #1” value was found to be 0.1534. The “k, Setp #2” value on HLA-A*03:01 [4] was 0.1427. For the same sequence, on HLA-A*11:01 [5], the “Experimental Stability (t1/2) Mean” value is 8 h; the “Half_life, Setp #1” value amounted to 8.4 h; the “Half_life, Setp #2” value worked out at 7.5 h; the “k, Setp #1” value turned out to be 0.0825. Also, the “k, Setp #2” value at HLA-A*11:01 [5] is on record as 0.093.
Take GRAFVTIGK: on HLA-B*07:02 [8], the IC50 came to 371 nM.
Sequence GAGGVGKSAL [Peptide 10-19] registered an IC50 at HLA-B*07:02 [8] of 76900 nM.
For VVGARGVGK [Peptide 8-16R], the IC50 on HLA-A*11:01 [1] amounted to 634 nM; on HLA-A*03:01 [2] (Experimental Affinity IC50) it was 5300 nM.

The record behind these values is PMC8285372, “Biochemical and functional characterization of mutant KRAS epitopes validates this oncoprotein for immunological targeting” (Nature Communications, 2021).
